Test results reported in patent US20210052882A1, “ENHANCED TREATMENT VOLUME AND SELECTIVE ABLATION USING ELECTROPORATION WITH ADJUVANT CALCIUM” (Virginia Tech Intellectual Properties, Inc., priority 2019, published 2021).
Where “and” joins values, the source holds several entries; their conditions need not be identical. Equal values may be shown once.

Legend:
[1] = Properties of solutions (conductivity, osmolarity); type: physicochemical; conditions: base 250 mM sucrose, 1 mM MgCl2, 10 mM HEPES, pH 7.2-7.4
Experimental: All solutions consisted of the same base ingredients: 250 mM sucrose, 1 mM MgCl2, and 10 mM HEPES buffer in deionized water with a pH in the range of 7.2-7.4. […] Cell culture media contains things such as serum and antibiotics that may affect results. Finally, fresh solutions were added immediately prior to pulsing. All solutions were adjusted to have a pH between 7.2-7.4.

[2] = system: U251 malignant glioma cells; assay: H-FIRE ablation (lesion) area in collagen scaffolds, live/dead stain 24 hr after treatment; type: cell-based; conditions: for increase of ablation area compared to NaCl control / increase in ablation area compared to NaCl control: H-FIRE 800 V, 80 bursts
Experimental: U251 malignant glioma cells (Sigma Aldrich, 09063001) were maintained at 5% CO2 and 37° C. in Eagle's Minimum Essential Medium (Sigma Aldrich) supplemented with 1% penicillin/streptomycin (Life Technologies), 10% fetal bovine serum (Atlanta Biologicals), 1% non-essential amino acids (Sigma Aldrich) and 1 mM sodium pyruvate (Sigma Aldrich). Cells were routinely passaged at 80-90% confluence. […] PDMS wells were treated with 1% PEI (Acros Organics) for 10 min, 0.1% glutaraldehyde (Fisher Scientific) for 20 min, and then washed twice with deionized water prior to collagen seeding to ensure collagen adhesion during treatment. Commercial rat tail collagen type I (BD Biosciences) was neutralized using a solution of 10× Dulbecco's Modified Eagle Medium (10% total volume, Sigma Aldrich), 1 N NaOH (2% collagen volume, Sigma Aldrich), and 1× Dulbecco's Modified Eagle Medium (Sigma Aldrich) to a final concentration of 5 mg/mL. […] The collagen/cell solution was dispensed into PDMS wells and PDMS tops were used to mold the collagen flat while they polymerized in a cell culture incubator for 20 min. PDMS tops were then removed and cell culture media was added. Collagen scaffolds were maintained in the incubator for 24 hr prior to treatment. […] All solutions consisted of the same base ingredients: 250 mM sucrose, 1 mM MgCl2, and 10 mM HEPES buffer in deionized water with a pH in the range of 7.2-7.4. […] Cell culture media contains things such as serum and antibiotics that may affect results. Finally, fresh solutions were added immediately prior to pulsing. All solutions were adjusted to have a pH between 7.2-7.4. The osmolarity and conductivity of the buffers used are shown in Table 1: In this example, two hollow, stainless-steel needle electrodes (Howard electronics) were inserted into the scaffolds using a custom designed electrode housing. […] H-FIRE pulses were delivered using a high-voltage pulse generator (EPULSUS®-FBM1-5, EnergyPulse Systems, Lda). Voltage waveforms were captured using a high voltage probe and oscilloscope (DPO 2012, Tektronix). […] The pulses delivered were bipolar pulses having a positive pulse duration, inter-pulse delay, and negative pulse duration (see, e.g., FIG. 1B). Inter-pulse delay was kept constant (1 μs) while pulse width was varied (1, 2, 5, 10 μs). […] For reversible threshold experiments, scaffolds were imaged immediately after treatment. To visualize ablations, a live/dead stain was performed to visualize live and dead regions of cells in the scaffold. […] Scaffolds were then washed 2× with PBS prior to imaging using an inverted microscope (DMI 6000B, Leica Microsystems) with a 5× objective. Lesion areas were quantified for each treatment using a MATLAB algorithm. Since 24 h post treatment is sufficient to allow any reversibly electroporated cells to recover (as pore resealing happens on the order of minutes), staining the cells immediately after treatment and 24 h later allows for quantification of both the reversible zone of electroporation and irreversible zones of ablation. […] Scaffolds were then washed twice with PBS prior to imaging using an inverted microscope (DMI 6000B, Leica Microsystems) with a 5× objective, filter cubes, and an EM-CCD camera (Hamamatsu C9100). The appropriate filters were used to image Calcein AM (Ex:460-500, DC: 505, EM: 570-640) and propidium iodide (EX:545/26, DC:565, EM:605/70). […] Scaffolds were then imaged immediately after treatment. […] Reversible electroporation experiments were repeated at least six times. Discrepancies in the number of replicates between conditions were due to bubbles or other defects that may have changed the electric field distribution or prohibited a reliable measurement of ablation area. These scaffolds were excluded from analysis. Two-way ANOVA was used to test for differences in cell death area due to the different applied solutions and pulse waveforms. Tukey post-hoc comparisons were used to examine differences among treatment groups. […]

[3] = system: U251 malignant glioma cells; assay: Electric field threshold for cell death, ablation area mapped to finite element model
Experimental: For analysis, images were separated into two channels (green—Calcein AM, red—PI) and ablation areas for the green channel were analyzed for irreversible thresholds and red channels for reversible electroporation thresholds using a custom algorithm written in MATLAB. In cases where the algorithm was unable to accurately measure ablations, coordinate points from the algorithm outlining the ablation area were used as a guide to manually trace and measure the area in ImageJ. Ablation area measurements were mapped to a finite element model of the experimental setup to determine the corresponding electric field threshold.
Treatments were simulated using the finite element method (COMSOL Multiphysics, Burlington, Mass.) and the electric field and temperature distributions were determined. The mesh was refined until there was <1% change in the electric field and temperature values along a cutline between the electrodes. The mesh consisted of 102,615 total elements. […] From the finite element model of the collagen scaffold, a relationship between lesion area and electric field magnitude is determined by performing numerical integration on the surface of the scaffold for a range of electric field magnitudes (100-3000 V/cm). A curve was constructed and fit to the data using least squares fitting in MATLAB. […] This equation was used to accurately back out the electric field thresholds for each treatment condition without needing to manually determine them using COMSOL.
From the finite element model, it is possible to determine the electric field threshold required for cell death.
Using the finite element model of H-FIRE treatment in the scaffold, the corresponding electric field thresholds for each ablation area were characterized.

[4] = system: U251 malignant glioma cells; assay: Reversible electroporation zone in collagen scaffolds imaged immediately after H-FIRE treatment; type: cell-based; conditions: for difference between reversible and irreversible electroporation areas: FIG. 10
Experimental: After pulsing, CaCl2, NaCl, KCl, and CaCl2/NaCl solutions were removed and cell culture media was added to each scaffold. For irreversible threshold experiments, the scaffolds were returned to the incubator for 24 hr prior to live/dead staining. For reversible threshold experiments, scaffolds were imaged immediately after treatment.
To visualize ablations, a live/dead stain was performed to visualize live and dead regions of cells in the scaffold. Scaffolds were incubated with 2 μM Calcein AM and 23 μM propidium iodide in phosphate buffered saline (PBS) for 30 minutes at room temperature. Scaffolds were then washed 2× with PBS prior to imaging using an inverted microscope (DMI 6000B, Leica Microsystems) with a 5× objective. Lesion areas were quantified for each treatment using a MATLAB algorithm. Since 24 h post treatment is sufficient to allow any reversibly electroporated cells to recover (as pore resealing happens on the order of minutes), staining the cells immediately after treatment and 24 h later allows for quantification of both the reversible zone of electroporation and irreversible zones of ablation.
To stain the scaffolds, media was removed and replaced with phosphate buffered saline (PBS) containing 2 μM Calcein AM (Invitrogen) and 23 μM PI (Invitrogen) and incubated at room temperature for 30 min. Scaffolds were then washed twice with PBS prior to imaging using an inverted microscope (DMI 6000B, Leica Microsystems) with a 5× objective, filter cubes, and an EM-CCD camera (Hamamatsu C9100). The appropriate filters were used to image Calcein AM (Ex:460-500, DC: 505, EM: 570-640) and propidium iodide (EX:545/26, DC:565, EM:605/70). To determine the reversible zone of electroporation, treatment followed the same electroporation protocol, but Calcein AM and PI were added to the CaCl2 and NaCl solutions at all steps prior to pulsing. Scaffolds were then imaged immediately after treatment.
Irreversible electroporation experiments were repeated 6-12 times for each condition. Reversible electroporation experiments were repeated at least six times. Discrepancies in the number of replicates between conditions were due to bubbles or other defects that may have changed the electric field distribution or prohibited a reliable measurement of ablation area. These scaffolds were excluded from analysis. Two-way ANOVA was used to test for differences in cell death area due to the different applied solutions and pulse waveforms. Tukey post-hoc comparisons were used to examine differences among treatment groups. Statistical analyses were performed with a confidence level of α=0.05 (MP Pro 14). Results are shown as means±standard deviation.
To investigate how CaCl2 and NaCl treatments affect permeabilization of the cells, the areas for reversible electroporation and their corresponding reversible electric field thresholds were characterized. Reversible electroporation thresholds for H-FIRE treatment have not been extensively characterized, making this work one of the first to quantify reversible thresholds for a range of unexplored pulse durations.

cells [5] = conditions: nsPEFs; cited from earlier work
[6] = 450 V, 1 Hz, 100 μs; 80 pulses for IRE, 8 pulses for ECT; cited from earlier work
cells [7] = assay: Toxicity of calcium chloride to cells at the concentrations used; type: cell-based
cells [8] = conditions: cited from earlier work

[Cl-].[K+] [KCl, potassium chloride]
Conductivity ([1]; 1 mM solution): 0.064 S/m | Osmolarity ([1]; 1 mM solution): 289 mOsm/L | ablation size relative to the NaCl control ([2]; 1 mM, H-FIRE): did not result in statistically significant ablation size

[Cl-].[Na+] [NaCl, sodium chloride, reference compound]
Conductivity ([1]; 1 mM solution): 0.056 ± 0.001 S/m | Osmolarity ([1]; 1 mM solution): 287 mOsm/L | Conductivity ([1]; 5 mM solution): 0.089 S/m | Osmolarity ([1]; 5 mM solution): 291 mOsm/L | visible lesion after H-FIRE ([2]; shorter pulse widths): no visible lesion | electric field threshold ([3]; H-FIRE 10-1-10 waveform, 1 mM): 1641±159 V/cm | electric field threshold ([3]; IRE treatment): 698±103 V/cm | reversible areas, NaCl solutions versus CaCl2 counterparts ([4]; 1 mM and 5 mM, all waveforms): smaller reversible areas | reversible zones larger than irreversible zones ([4]; 2-1-2 waveform, 1 mM): 4.68 × | reversible zones larger than irreversible zones ([4]; 2-1-2 waveform, 5 mM): 3.88 × | reversible zones larger than irreversible zones ([4]; 5-1-5 waveform, 1 mM): 5.58 × | reversible zones larger than irreversible zones ([4]; 5-1-5 waveform, 5 mM): 3.94 × | reversible zones larger than irreversible zones ([4]; 10-1-10 waveform, 1 mM): 3.17 × | reversible zones larger than irreversible zones ([4]; 10-1-10 waveform, 5 mM): 2.94 × | difference between reversible and irreversible electroporation areas [4]: largest

[Ca+2].[Cl-].[Cl-] [CaCl2, calcium chloride]
cell swelling and mode of cell death (cells [5]): experienced necrosis | Conductivity ([1]; 1 mM solution): 0.075 ± 0.004 S/m | Osmolarity ([1]; 1 mM solution): 289 mOsm/L | Conductivity ([1]; 5 mM solution): 0.131 S/m | Osmolarity ([1]; 5 mM solution): 300 mOsm/L | increase of ablation area compared to NaCl control ([2]; 1 mM, 1-1-1 waveform): ~2.3 × | increase of ablation area compared to NaCl control ([2]; 1 mM, 2-1-2 waveform): 4.4 × | increase of ablation area compared to NaCl control ([2]; 1 mM, 5-1-5 waveform): 6.1 × | increase of ablation area compared to NaCl control ([2]; 1 mM, 10-1-10 waveform): 3.42 × | increase in ablation area compared to NaCl control ([2]; 5 mM, 1-1-1 waveform): 3.4 × | increase in ablation area compared to NaCl control ([2]; 5 mM, 2-1-2 waveform): 4.37 × | increase in ablation area compared to NaCl control ([2]; 5 mM, 5-1-5 waveform): 5.24 × | increase in ablation area compared to NaCl control ([2]; 5 mM, 10-1-10 waveform): 2.66 × | lesion size compared with an IRE treatment without calcium ([2]; 5 mM, same applied energy, 2, 5 and 10 μs pulse widths): comparable in size or larger | ablation (lesion) sizes, calcium groups versus NaCl groups ([2]; H-FIRE, all pulse patterns): statistically significantly larger | 5 mM CaCl2 areas versus 1 mM CaCl2 areas ([2]; after 24 h, shorter pulse durations): larger | lesion area for IRE or ECT treatment when CaCl2 is added [6]: greatly increased | toxicity to cells (cells [7]): non-toxic | cell death, ECT pulses with calcium versus electroporation alone (cells [8]): more cell death | cellular ATP, ECT pulses with calcium versus electroporation alone (cells [8]): greater decrease | reduction of electric field threshold compared to NaCl control ([3]; 1 mM, 1-1-1 waveform): 1.24 × | reduction of electric field threshold compared to NaCl control ([3]; 1 mM, 2-1-2 waveform): 1.48 × | reduction of electric field threshold compared to NaCl control ([3]; 1 mM, 2-2-2 waveform): 1.5 × | reduction of electric field threshold compared to NaCl control ([3]; 1 mM, 5-1-5 waveform): 2.05 × | reduction of electric field threshold compared to NaCl control ([3]; 1 mM, 5-5-5 waveform): 2.1 × | reduction of electric field threshold compared to NaCl control ([3]; 1 mM, 10-1-10 waveform): 2.2 × and 2.19 × | reduction of electric field threshold, 5 mM NaCl to 5 mM CaCl2 ([3]; 1-1-1 waveform): 1.46 × | reduction of electric field threshold, 5 mM NaCl to 5 mM CaCl2 ([3]; 2-1-2 waveform): 1.77 × and 1.91 × | reduction of electric field threshold, 5 mM NaCl to 5 mM CaCl2 ([3]; 5-1-5 waveform): 2.49 × and 2.43 × | reduction of electric field threshold, 5 mM NaCl to 5 mM CaCl2 ([3]; 10-1-10 waveform): 1.92 × and 1.83 × | electric field threshold ([3]; H-FIRE 10-1-10 waveform with calcium, concentration not given): 784±107 V/cm | electric field threshold ([3]; H-FIRE 10-1-10 waveform, 1 mM): 771±129 V/cm | electric field threshold ([3]; IRE treatment): 467±67 V/cm | reversible zone larger than the 1 mM NaCl zone ([4]; 1 mM CaCl2, 2-1-2 waveform): 1.56 × | reversible zone larger than the 1 mM NaCl zone ([4]; 1 mM CaCl2, 5-1-5 waveform): 1.7 × | reversible zone larger than the 1 mM NaCl zone ([4]; 1 mM CaCl2, 10-1-10 waveform): 1.42 × | reversible zone larger than the 1 mM NaCl zone ([4]; 5 mM CaCl2, 2-1-2 waveform): 1.66 × | reversible zone larger than the 1 mM NaCl zone ([4]; 5 mM CaCl2, 5-1-5 waveform): 1.73 × | reversible zone larger than the 1 mM NaCl zone ([4]; 5 mM CaCl2, 10-1-10 waveform): 1.46 × | reversible zones larger than irreversible zones ([4]; 2-1-2 waveform, 1 mM): 2.62 × | reversible zones larger than irreversible zones ([4]; 2-1-2 waveform, 5 mM): 1.47 × | reversible zones larger than irreversible zones ([4]; 5-1-5 waveform, 1 mM): 1.67 × | reversible zones larger than irreversible zones ([4]; 5-1-5 waveform, 5 mM): 1.3 × | reversible zones larger than irreversible zones ([4]; 10-1-10 waveform, 1 mM): 1.32 × | reversible zones larger than irreversible zones ([4]; 10-1-10 waveform, 5 mM): 1.59 × | difference between reversible and irreversible electroporation areas [4]: decreased | difference between 1 mM and 5 mM treatments, reversible case ([4]; imaged immediately after treatment): no statistically significant difference
